Key:
Set-up in all cases: species or system BALB/c mice
Conditions in all cases: mouse, in vivo
[1] = system: homologous influenza virus isolate used for immunization (MDCK cells, CPE)
[2] = system: HA (peptide pools derived from HA)
[3] = system: Total anti-HBS antibodies
[4] = system: Total anti-influenza IgG antibodies

| Substance | Neutralizing antibody response, FIG. 2 [1] | T-cell response (ELISPOT), FIG. 18 [2] | further results |
| --- | --- | --- | --- |
| KWCEC (Short peptide sequence not known to occur in nature) [5mer4] | caused a significant antibody response | – | T cell response (ELISPOT) compared with other adjuvants, FIG. 16 [2]: stronger than that generated with alum alone and comparable to that generated by CpG |
| EHWCM (Short peptide sequence not known to occur in nature) | – | generated a large T-cell response | – |
| WHKCE (Short peptide sequence not known to occur in nature) [5mer2] | did not cause a strong neutralizing antibody response | – | – |
| free peptide (KWCEC; Short peptide sequence not known to occur in nature) | – | – | Total anti-HBS antibodies (ELISA) response [3]: strong response at both 6 and 8 weeks post immunization; antibody response (ELISA) after fluviral vaccination [4]: stronger response at both 6 and 8 weeks post immunization |
| CYWWW (Short peptide sequence not known to occur in nature) | – | generated a significant T-cell response | – |
| CHKWD (Short peptide sequence not known to occur in nature) [5mer1] | did not cause a strong neutralizing antibody response | – | – |
| CYYWC (Short peptide sequence not known to occur in nature) | – | below the baseline of HA alone | – |
| CKWRC (Short peptide sequence not known to occur in nature) [5mer3] | did not cause a strong neutralizing antibody response | – | – |
| KYMCW (Short peptide sequence not known to occur in nature) [5mer7] | caused a significant antibody response | – | – |
| EMWCM (Short peptide sequence not known to occur in nature) | – | did not | – |
